Tested on: PGE2
Test: Inhibition of PGE2 release in LPS-stimulated RAW 264.7 cells
Format: cell-based
Details: Mus musculus, RAW264.7; pretreated 2 hours, 1 μg/mL LPS 20-24 hours
Method: RAW 264.7 cells were seeded at 4×10^4 cells per well in complete growth medium in 96 well white TC plates with clear bottoms one day prior to the assay. The next day the cells were washed once and 100 μL fresh growth media was added. Cells were pretreated with 0.5 μL from a 6 point 200× dilution series of the test compounds in DMSO for 2 hours. Following pretreatment with the drugs, the inflammatory response was induced by adding 5 μL of a 20 μg/mL solution of LPS (Sigma). The cells were incubated in the presence of the drugs and 1 μg/mL LPS for another 20-24 hours. Typically after treatment the total DMSO was […] of the culture volume and the final concentrations of the compounds were approximately: 40, 20, 10, 1, 0.2 and 0 μM depending on the MW of each compound. Modified dilution series were prepared as needed to get adequate dose response curves without changing the % DMSO. Samples were run in duplicate or triplicate and included DMSO treated control wells with and without LPS stimulation. Drugs with a known activity such as Parthenolide or DHMEQ were run as experimental controls. After 20-24 hours LPS activation, the media supernatant was collected from the cells and replaced with fresh media. The supernatant samples were cleared by centrifugation at 1,000×g for 5 minutes, transferred to fresh storage plates, and stored frozen at −30° C.
After determining the appropriate supernatant dilutions experimentally, PGE2 levels in the supernatants were quantified using Parameter™ PGE2 Immunoassay (R&D Systems) according to the manufacturer's protocol. […] Absorbance at 450 nm with a reference at 595 nm was recorded using a Becton-Dickinson DTX 880 Multimode Detector.
The concentration of PGE2 in the unknown samples was determined from a curve-fit of the PGE2 standard absorbance data and multiplying by the dilution factor. […] Inhibition of the amount of PGE2 released in the drug treated wells was calculated relative to the maximum activation in the DMSO+LPS treated control wells (i.e., % inhibition=100−(drug+LPS treated)/(DMSO+LPS treated)). […]

EC50 [nM] | SMILES
1100 | O=C(CC1CCCCC1)Oc1ccccc1C(=O)NC1=CC(=O)C2OC2C1O (racemic) [Example 3, (±)-2-(2-hydroxy-5-oxo-7-oxabicyclo[4.1.0]hept-3-en-3-ylcarbamoyl)phenyl 2-cyclohexylacetate]
2700 | CC(C)OC(=O)Oc1ccccc1C(=O)NC1=CC(=O)C2OC2C1OC(=O)OC(C)C (racemic) [Example 2, (±)-3-(2-isopropoxycarbonyloxy-benzoylamino)-5-oxo-7-oxa-bicyclo[4.1.0]hept-3-en-2-yl ester isopropyl ester]
1900 | CC(C)CC(=O)Oc1ccccc1C(=O)NC1=CC(=O)C2OC2C1O (racemic) [Example 1, (±)-2-(2-hydroxy-5-oxo-7-oxabicyclo[4.1.0]hept-3-en-3-ylcarbamoyl)phenyl 3-methylbutanoate]
